The assay concerns RAW 264.7 cells. The assay is described as follows: Quantitative cell-permeability of FITC-labeled aMTD- or rPeptide-fused CRA recombinant proteins (flow cytometry). Type of assay: cell-based. The method in brief: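 RAW 264.7 cells were exposed to 10 μM FITC-labeled recombinant proteins, consisting of a non-functional cargo fused to aMTD or rPeptide sequences, for 1 hour at 37° C. Cells were washed three times in cold PBS and treated with 0.25% tripsin/EDTA for 20 minutes at 37° C. to strip surface-bound protein, then uptake was measured by flow cytometry.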
(Flow cytometry measures light scatter and fluorescence of single cells or particles in a stream.)

The mark [1] stands for this setting: cell-permeability of aMTD-fused CRA recombinant protein relative to negative control (A: rP38).
The mark [2] stands for this setting: cell-permeability of aMTD-fused CRA recombinant protein relative to reference CPP (B: MTM12).
Setting [3] is: cell-permeability of aMTD-fused CRA recombinant protein relative to reference CPP (C: MTD85).
Where [4] appears, read: cell-permeability relative to negative control rP38 (A type), aMTD-fused CRA recombinant protein, 10 μM FITC-labeled, 1 hour, 37° C., RAW 264.7 cells.
[5] abbreviates: cell-permeability relative to reference CPP MTD85 (C type), aMTD-fused CRA recombinant protein, 10 μM FITC-labeled, 1 hour, 37° C., RAW 264.7 cells.
[6] abbreviates: cell-permeability relative to reference CPP MTM12 (B type), aMTD-fused CRA recombinant protein, 10 μM FITC-labeled, 1 hour, 37° C., RAW 264.7 cells.

Regarding “461 (IAAVIVPAVALP; Amino acid Sequence of aMTD461) [compound 461]”, under setting [1], the “Relative Ratio (Fold) A” value is given as 19.0 Fold. The “Relative Ratio (Fold) B” value under setting [2] came out at 12.7 Fold. The “Relative Ratio (Fold) C” value under setting [3] came out at 6.4 Fold.
As for “462 (IAAVLVPAVALP; Amino acid Sequence of aMTD462) [compound 462]”, the “Relative Ratio (Fold) A” value under setting [4] was 6.3 Fold. The “Relative Ratio (Fold) C” value under setting [5] amounted to 2.1 Fold. Further, the “Relative Ratio (Fold) B” value under setting [6] is on record as 4.2 Fold.
Turning to “463 (AVAILVPLLAAP; Amino acid Sequence of aMTD463) [compound 463]”, the “Relative Ratio (Fold) A” value under setting [1] is reported as 17.6 Fold. Also, the “Relative Ratio (Fold) B” value under setting [2] is reported as 11.7 Fold. Also, under setting [3], the “Relative Ratio (Fold) C” value is 5.9 Fold.
For the substance “464 (AVVILVPLAAAP; Amino acid Sequence of aMTD464) [compound 464]”, under setting [1], the “Relative Ratio (Fold) A” value was determined as 22.3 Fold. For the same substance, the “Relative Ratio (Fold) B” value under setting [2] was 14.9 Fold. The “Relative Ratio (Fold) C” value under setting [3] turned out to be 7.5 Fold.
Taken in the same sequence, the figures for “465 (IAAVIVPVAALP; Amino acid Sequence of aMTD465) [compound 465]” were 7.4 Fold, 4.9 Fold and 2.5 Fold.
Regarding “466 (IIAAAAPLAIIP; Amino acid Sequence of rPeptide ID 466) [compound 466]”, the “Relative Ratio to aMTD AVE” value (cell-permeability of rPeptide-fused CRA recombinant protein relative to average of 240 aMTDs, 10 μM FITC-labeled, 1 hour, 37° C., RAW 264.7 cells) came out at 0.52.
Consider “482 (ILAVAAIPVAVP; Amino acid Sequence of aMTD482) [compound 482]”, for which the “Relative Ratio (Fold) A” value under setting [1] was 15.8 Fold. In addition, the “Relative Ratio (Fold) B” value under setting [2] amounted to 10.6 Fold. Under setting [3], the “Relative Ratio (Fold) C” value worked out at 5.3 Fold.
Regarding “483 (ILAAAIIPAALP; Amino acid Sequence of aMTD483) [compound 483]”, the “Relative Ratio (Fold) A” value under setting [4] worked out at 6.8 Fold. For the same substance, the “Relative Ratio (Fold) C” value under setting [5] is recorded as 2.3 Fold. The “Relative Ratio (Fold) B” value under setting [6] was determined as 4.5 Fold.
As for “484 (LAVVLAAPAIVP; Amino acid Sequence of aMTD484) [compound 484]”, under setting [1], the “Relative Ratio (Fold) A” value turned out to be 15.8 Fold. For the same substance, under setting [2], the “Relative Ratio (Fold) B” value came out at 10.4 Fold. Under setting [3], the “Relative Ratio (Fold) C” value turned out to be 5.3 Fold.
Take “485 (AILAAIVPLAVP; Amino acid Sequence of aMTD485) [compound 485]”: the “Relative Ratio (Fold) A” value under setting [4] came to 6.8 Fold. For the same substance, the “Relative Ratio (Fold) C” value under setting [5] amounted to 2.3 Fold. In addition, the “Relative Ratio (Fold) B” value under setting [6] turned out to be 4.5 Fold.
On to “501 (VIVALAVPALAP; Amino acid Sequence of aMTD501) [compound 501]”, for which the “Relative Ratio (Fold) A” value under setting [1] is reported as 21.5 Fold. For the same substance, the “Relative Ratio (Fold) B” value under setting [2] is 14.4 Fold. For the same substance, the “Relative Ratio (Fold) C” value under setting [3] is on record as 7.2 Fold.
Turning to “502 (AIVALAVPVLAP; Amino acid Sequence of aMTD502) [compound 502]”, the “Relative Ratio (Fold) A” value under setting [4] is 5.6 Fold. For the same substance, the “Relative Ratio (Fold) C” value under setting [5] stood at 1.9 Fold. In addition, the “Relative Ratio (Fold) B” value under setting [6] was 3.7 Fold.
Turning to “504 (LIVALAVPALAP; Amino acid Sequence of aMTD504) [compound 504]”, the “Relative Ratio (Fold) A” value under setting [4] is recorded as 3.3 Fold. In addition, the “Relative Ratio (Fold) C” value under setting [5] is 1.1 Fold. Also, the “Relative Ratio (Fold) B” value under setting [6] is 2.2 Fold.
In the case of “505 (AIIIVIAPAAAP; Amino acid Sequence of aMTD505) [compound 505]”, the “Relative Ratio (Fold) A” value under setting [1] came to 12.4 Fold. Further, the “Relative Ratio (Fold) B” value under setting [2] worked out at 8.3 Fold. Further, the “Relative Ratio (Fold) C” value under setting [3] is listed as 4.2 Fold.
Taken in the same sequence, the figures for “507 (VAIALAPVVVAP; Amino acid Sequence of aMTD907) [compound 507]” were 8.1 Fold, 5.4 Fold and 2.8 Fold.
Taken in the same sequence, the figures for “521 (LAALIVVPAVAP; Amino acid Sequence of aMTD521) [compound 521]” were 9.4 Fold, 6.3 Fold and 3.2 Fold.
The corresponding values for “522 (ALLVIAVPAVAP; Amino acid Sequence of aMTD522) [compound 522]” are 22.7 Fold, 15.2 Fold and 7.7 Fold.
As for “524 (AVALIVVPALAP; Amino acid Sequence of aMTD524) [compound 524]”, under setting [1], the “Relative Ratio (Fold) A” value amounted to 18.3 Fold. For the same substance, the “Relative Ratio (Fold) B” value under setting [2] came to 12.2 Fold. Also, the “Relative Ratio (Fold) C” value under setting [3] is listed as 6.2 Fold.
With “525 (ALAIVVAPVAVP; Amino acid Sequence of aMTD525) [compound 525]”, the “Relative Ratio (Fold) A” value under setting [1] turned out to be 13.8 Fold. Moreover, the “Relative Ratio (Fold) B” value under setting [2] came to 9.2 Fold. Further, the “Relative Ratio (Fold) C” value under setting [3] is 4.7 Fold.
Taken in the same sequence, the figures for “541 (LLALIIAPAAAP; Amino acid Sequence of aMTD541) [compound 541]” were 14.8 Fold, 9.9 Fold and 5.0 Fold.
Taken in the same sequence, the figures for “542 (ALALIIVPAVAP; Amino acid Sequence of aMTD542) [compound 542]” were 16.2 Fold, 10.8 Fold and 5.5 Fold.
Taken in the same sequence, the figures for “543 (LLAALIAPAALP; Amino acid Sequence of aMTD543) [compound 543]” were 11.7 Fold, 7.9 Fold and 4.0 Fold.
As for “544 (IVALIVAPAAVP; Amino acid Sequence of aMTD544) [compound 544]”, the “Relative Ratio (Fold) A” value under setting [1] is recorded as 23.4 Fold. Moreover, under setting [2], the “Relative Ratio (Fold) B” value came to 15.6 Fold. For the same substance, the “Relative Ratio (Fold) C” value under setting [3] is listed as 7.9 Fold.
Consider “545 (VVLVLAAPAAVP; Amino acid Sequence of aMTD545) [compound 545]”, for which the “Relative Ratio (Fold) A” value under setting [1] was 34.6 Fold. The “Relative Ratio (Fold) B” value under setting [2] came to 23.1 Fold. Further, the “Relative Ratio (Fold) C” value under setting [3] was determined as 11.7 Fold.
For the substance “561 (AAVAIVLPAVVP; Amino acid Sequence of aMTD561) [compound 561]”, the “Relative Ratio (Fold) A” value under setting [4] is on record as 3.9 Fold. The “Relative Ratio (Fold) C” value under setting [5] turned out to be 1.3 Fold. Under setting [6], the “Relative Ratio (Fold) B” value is recorded as 2.6 Fold.
Regarding “562 (ALIAAIVPALVP; Amino acid Sequence of aMTD562) [compound 562]”, the “Relative Ratio (Fold) A” value under setting [1] came to 32.7 Fold. Under setting [2], the “Relative Ratio (Fold) B” value is listed as 21.8 Fold. Moreover, the “Relative Ratio (Fold) C” value under setting [3] worked out at 11.0 Fold.
Regarding “564 (VAIALIVPALAP; Amino acid Sequence of aMTD564) [compound 564]”, under setting [1], the “Relative Ratio (Fold) A” value amounted to 43.6 Fold. Besides, the “Relative Ratio (Fold) B” value under setting [2] is given as 29.1 Fold. Also, under setting [3], the “Relative Ratio (Fold) C” value is recorded as 14.7 Fold.
Take “565 (VAIVLVAPAVAP; Amino acid Sequence of aMTD565) [compound 565]”: the “Relative Ratio (Fold) A” value under setting [1] was 7.5 Fold. The “Relative Ratio (Fold) B” value under setting [2] worked out at 5.0 Fold. Moreover, the “Relative Ratio (Fold) C” value under setting [3] turned out to be 2.5 Fold.
Regarding “582 (VAVALIVPALAP; Amino acid Sequence of aMTD582) [compound 582]”, the “Relative Ratio (Fold) A” value under setting [1] is given as 30.6 Fold. For the same substance, the “Relative Ratio (Fold) B” value under setting [2] is on record as 20.4 Fold. Moreover, the “Relative Ratio (Fold) C” value under setting [3] is 10.3 Fold.
